Experiment: Flowability / transfer of the product from vessel to vessel
Assay type: physicochemical
Conditions: as obtained, ambient temperature
Source text: As used herein, the term “flowable” with regard to a composition is intended to mean that a majority of particles of the composition have the ability to move freely relative to an inner surface of a vessel in which they are contained.
Purified THC at 99% purity (dronabinol) was used.
A product comprising 66% silica and 33% THC was formed. It felt dry and was free flowing. It transferred fully from one vessel to another.

SMILES: CCCCCc1cc(O)c2c(c1)OC(C)(C)[C@@H]1CCC(C)=C[C@@H]21 [dronabinol]
- flowability of the material (pourable / free flowing): could not be poured out of its container

From US20250213596A1, “CANNABINOID-CONTAINING COMPOSITIONS” (BUZZELET DEVELOPMENT AND TECHNOLOGIES LTD., priority 2022, published 2025)
